This test addresses T1, AR (Homo sapiens, UniProt P10275).
T1 construct: endogenous in cells; host or cells: VCaP cells
T1 sequence (P10275 1-920): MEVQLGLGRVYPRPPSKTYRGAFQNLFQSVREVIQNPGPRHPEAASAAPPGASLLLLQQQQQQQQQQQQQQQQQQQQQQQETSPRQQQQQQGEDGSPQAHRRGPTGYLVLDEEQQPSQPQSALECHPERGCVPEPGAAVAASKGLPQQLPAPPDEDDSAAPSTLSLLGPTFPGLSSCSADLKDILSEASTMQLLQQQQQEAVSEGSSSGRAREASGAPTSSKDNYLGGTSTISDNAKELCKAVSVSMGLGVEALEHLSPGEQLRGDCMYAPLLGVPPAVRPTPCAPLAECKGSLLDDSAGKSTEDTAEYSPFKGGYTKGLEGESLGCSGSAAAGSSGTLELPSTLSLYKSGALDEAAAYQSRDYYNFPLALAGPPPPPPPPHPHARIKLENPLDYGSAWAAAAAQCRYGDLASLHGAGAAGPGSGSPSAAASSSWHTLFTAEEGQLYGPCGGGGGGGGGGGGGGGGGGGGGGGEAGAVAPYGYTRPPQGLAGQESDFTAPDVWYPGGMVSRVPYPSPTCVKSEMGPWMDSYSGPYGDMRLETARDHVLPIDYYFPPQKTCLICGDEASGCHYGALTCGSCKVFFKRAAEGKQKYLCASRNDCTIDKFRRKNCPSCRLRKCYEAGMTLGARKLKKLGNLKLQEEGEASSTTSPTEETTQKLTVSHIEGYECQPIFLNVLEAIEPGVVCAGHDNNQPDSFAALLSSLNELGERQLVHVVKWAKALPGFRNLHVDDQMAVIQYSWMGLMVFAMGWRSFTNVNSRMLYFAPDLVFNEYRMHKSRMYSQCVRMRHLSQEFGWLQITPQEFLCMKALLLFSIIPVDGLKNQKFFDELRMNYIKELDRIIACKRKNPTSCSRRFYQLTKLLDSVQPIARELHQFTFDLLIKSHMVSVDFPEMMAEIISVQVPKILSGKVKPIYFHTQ
Put plainly: VCAP AR Degradation Assay. The format is cell-based. The conditions noted are these: for Y (AR degradation efficiency, % of DMSO control): class symbols *; for DC50: class symbols A-C, read-out: DC50. Put shortly:
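Compounds were plated as 10-point 1:3 series reaching 5 μM final, then VCaP cells were seeded onto them and incubated 24 h at 37 °C. Cells were lysed cold, and total AR was measured by sandwich ELISA relative to 0.1% DMSO wells.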

The values that follow come from patent US12404241B2 (Celgene Corporation, priority 2018, dated 2025).

What is called DC50 is the concentration at which degradation of the target reaches its halfway point. Turning to `CC1(C)C(=O)N(c2ccc(C#N)c(C(F)(F)F)c2)C(=S)N1c1ccc(OCCN2CCN(CC(=O)Nc3cccc(NC4CCC(=O)NC4=O)c3)[C@H](C(F)(F)F)C2)c(C2CC2)c1` (stereo partly drawn) [Example 245, 2-((S)-4-(2-(4-(3-(4-cyano-3-(trifluoromethyl)phenyl)-5,5-dimethyl-4-oxo-2-thioxoimidazolidin-1-yl)-2-cyclopropylphenoxy)ethyl)-2-(trifluoromethyl)piperazin-1-yl)-N-(3-(2,6-dioxopiperidin-3-ylamino)phenyl)acetamide], the “Y (AR degradation efficiency, % of DMSO control)” value is “* (0<Y<=25%)” and the 50% degradation concentration (DC50) is under 100 nM.

For the compound `CCc1cc(N2C(=S)N(c3ccc(C#N)c(C(F)(F)F)c3)C(=O)C2(C)C)ccc1OCCN1CCN(CC(=O)Nc2cccc(NC3CCC(=O)NC3=O)c2)[C@H](C(F)(F)F)C1` (stereo partly drawn) [Example 246, 2-((S)-4-(2-(4-(3-(4-cyano-3-(trifluoromethyl)phenyl)-5,5-dimethyl-4-oxo-2-thioxoimidazolidin-1-yl)-2-ethylphenoxy)ethyl)-2-(trifluoromethyl)piperazin-1-yl)-N-(3-(2,6-dioxopiperidin-3-ylamino)phenyl)acetamide], the “Y (AR degradation efficiency, % of DMSO control)” value was “* (0<Y<=25%)” and the DC50 is under 100 nM.

For `CCc1cc(N2C(=S)N(c3ccc(C#N)c(C(F)(F)F)c3)C(=O)C2(C)C)c(F)cc1OCCN1C[C@@H](C)N(CC(=O)Nc2cccc(NC3CCC(=O)NC3=O)c2)[C@@H](C)C1` (stereo partly drawn) [Example 247, 2-((2S,6R)-4-(2-(4-(3-(4-cyano-3-(trifluoromethyl)phenyl)-5,5-dimethyl-4-oxo-2-thioxoimidazolidin-1-yl)-2-ethyl-5-fluorophenoxy)ethyl)-2,6-dimethylpiperazin-1-yl)-N-(3-(2,6-dioxopiperidin-3-ylamino)phenyl)acetamide], the “Y (AR degradation efficiency, % of DMSO control)” value is recorded as “* (0<Y<=25%)” and the DC50 was under 100 nM.

For `CCc1cc(N2C(=S)N(c3ccc(C#N)c(C(F)(F)F)c3)C(=O)C2(C)C)cc(F)c1OCCN1C[C@@H](C)N(CC(=O)Nc2cccc(NC3CCC(=O)NC3=O)c2)[C@@H](C)C1` (stereo partly drawn) [Example 248, 2-((2S,6R)-4-(2-(4-(3-(4-cyano-3-(trifluoromethyl)phenyl)-5,5-dimethyl-4-oxo-2-thioxoimidazolidin-1-yl)-2-ethyl-6-fluorophenoxy)ethyl)-2,6-dimethylpiperazin-1-yl)-N-(3-(2,6-dioxopiperidin-3-ylamino)phenyl)acetamide], the “Y (AR degradation efficiency, % of DMSO control)” value was “* (0<Y<=25%)” and the half-maximal degradation concentration (DC50) is under 100 nM.

As to `CCc1cc(N2C(=S)N(c3ccc(C#N)c(C(F)(F)F)c3)C(=O)C2(C)C)cc(C)c1OCCN1C[C@@H](C)N(CC(=O)Nc2cccc(NC3CCC(=O)NC3=O)c2)[C@@H](C)C1` (stereo partly drawn) [Example 249, 2-((2R,6S)-4-(2-(4-(3-(4-cyano-3-(trifluoromethyl)phenyl)-5,5-dimethyl-4-oxo-2-thioxoimidazolidin-1-yl)-2-ethyl-6-methylphenoxy)ethyl)-2,6-dimethylpiperazin-1-yl)-N-(3-(2,6-dioxopiperidin-3-ylamino)phenyl)acetamide], the “Y (AR degradation efficiency, % of DMSO control)” value is recorded as “*** (35%<Y<50%)” and the half-maximal degradation concentration (DC50) is 100 to 500 nM.

With `CC(C)c1cc(N2C(=S)N(c3ccc(C#N)c(Cl)c3)C(=O)C2(C)C)ccc1OCCN1C[C@@H](C)N(CC(=O)Nc2cc(C#N)cc(NC3CCC(=O)NC3=O)c2)[C@@H](C)C1` (stereo partly drawn) [Example 250, 2-((2S,6R)-4-(2-(4-(3-(3-chloro-4-cyanophenyl)-5,5-dimethyl-4-oxo-2-thioxoimidazolidin-1-yl)-2-isopropylphenoxy)ethyl)-2,6-dimethylpiperazin-1-yl)-N-(3-cyano-5-(2,6-dioxopiperidin-3-ylamino)phenyl)acetamide], the “Y (AR degradation efficiency, % of DMSO control)” value is recorded as “* (0<Y<=25%)” and the 50% degradation concentration (DC50) is under 100 nM.

With `CC(C)c1cc(N2C(=S)N(c3ccc(C#N)c(Cl)c3)C(=O)C2(C)C)ccc1OCCN1C[C@@H](C)N(CC(=O)Nc2cc(F)cc(NC3CCC(=O)NC3=O)c2)[C@@H](C)C1` (stereo partly drawn) [Example 251, 2-((2S,6R)-4-(2-(4-(3-(3-chloro-4-cyanophenyl)-5,5-dimethyl-4-oxo-2-thioxoimidazolidin-1-yl)-2-isopropylphenoxy)ethyl)-2,6-dimethylpiperazin-1-yl)-N-(3-(2,6-dioxopiperidin-3-ylamino)-5-fluorophenyl)acetamide], the “Y (AR degradation efficiency, % of DMSO control)” value is given as “* (0<Y<=25%)” and the DC50 is under 100 nM.

`C[C@@H]1CN(CCOc2ccc(N3C(=S)N(c4ccc(C#N)c(C(F)(F)F)c4)C(=O)C3(C)C)cc2C(C)(F)F)C[C@H](C)N1CC(=O)Nc1cccc(NC2CCC(=O)NC2=O)c1` (stereo partly drawn) [Example 252, 2-((2S,6R)-4-(2-(4-(3-(4-cyano-3-(trifluoromethyl)phenyl)-5,5-dimethyl-4-oxo-2-thioxoimidazolidin-1-yl)-2-(1,1-difluoroethyl)phenoxy)ethyl)-2,6-dimethylpiperazin-1-yl)-N-(3-(2,6-dioxopiperidin-3-ylamino)phenyl)acetamide]: the “Y (AR degradation efficiency, % of DMSO control)” value is “* (0<Y<=25%)” and the DC50 was under 100 nM.

For the compound `Cc1cc(OCCN2C[C@@H](C)N(CC(=O)Nc3cccc(NC4CCC(=O)NC4=O)c3)[C@@H](C)C2)c(C(C)C)cc1N1C(=S)N(c2ccc(C#N)c(C(F)(F)F)c2)C(=O)C1(C)C` (stereo partly drawn) [Example 253, 2-((2S,6R)-4-(2-(4-(3-(4-cyano-3-(trifluoromethyl)phenyl)-5,5-dimethyl-4-oxo-2-thioxoimidazolidin-1-yl)-2-isopropyl-5-methylphenoxy)ethyl)-2,6-dimethylpiperazin-1-yl)-N-(3-(2,6-dioxopiperidin-3-ylamino)phenyl)acetamide], the “Y (AR degradation efficiency, % of DMSO control)” value is reported as “* (0<Y<=25%)” and the DC50 lay within 100 to 500 nM.

As to `CCc1cc(N2C(=S)N(c3ccc(C#N)c(C(F)(F)F)c3)C(=O)C2(C)C)c(C)cc1OCCN1C[C@@H](C)N(CC(=O)Nc2cccc(NC3CCC(=O)NC3=O)c2)[C@@H](C)C1` (stereo partly drawn) [Example 254, 2-((2S,6R)-4-(2-(4-(3-(4-cyano-3-(trifluoromethyl)phenyl)-5,5-dimethyl-4-oxo-2-thioxoimidazolidin-1-yl)-2-ethyl-5-methylphenoxy)ethyl)-2,6-dimethylpiperazin-1-yl)-N-(3-(2,6-dioxopiperidin-3-ylamino)phenyl)acetamide], the “Y (AR degradation efficiency, % of DMSO control)” value is on record as “* (0<Y<=25%)” and the DC50 was under 100 nM.

In the case of `C[C@@H]1CN(CCOc2ccc(N3C(=S)N(c4cnc(C#N)c(C(F)(F)F)c4)C(=O)C3(C)C)cc2C(C)(F)F)C[C@H](C)N1CC(=O)Nc1cccc(NC2CCC(=O)NC2=O)c1` (stereo partly drawn) [Example 255, 2-((2S,6R)-4-(2-(4-(3-(6-cyano-5-(trifluoromethyl)pyridin-3-yl)-5,5-dimethyl-4-oxo-2-thioxoimidazolidin-1-yl)-2-(1,1-difluoroethyl)phenoxy)ethyl)-2,6-dimethylpiperazin-1-yl)-N-(3-(2,6-dioxopiperidin-3-ylamino)phenyl)acetamide], the “Y (AR degradation efficiency, % of DMSO control)” value is on record as “* (0<Y<=25%)” and the 50% degradation concentration (DC50) is under 100 nM.

For `CC(C)c1cc(N2C(=S)N(c3cnc(C#N)c(C(F)(F)F)c3)C(=O)C2(C)C)ccc1OCCN1CCN(CC(=O)Nc2cccc(NC3CCC(=O)NC3=O)c2)[C@H](C(F)(F)F)C1` (stereo partly drawn) [Example 256, 2-((S)-4-(2-(4-(3-(6-cyano-5-(trifluoromethyl)pyridin-3-yl)-5,5-dimethyl-4-oxo-2-thioxoimidazolidin-1-yl)-2-isopropylphenoxy)ethyl)-2-(trifluoromethyl)piperazin-1-yl)-N-(3-(2,6-dioxopiperidin-3-ylamino)phenyl)acetamide], the “Y (AR degradation efficiency, % of DMSO control)” value was “** (25%<Y<=35%)” and the DC50 fell in the range of 100 to 500 nM.

As to `CC(C)c1cc(N2C(=S)N(c3ccc(C#N)c(C(F)(F)F)c3)C(=O)C2(C)C)ccc1OCCN1CCN(CC(=O)Nc2cccc(NC3CCC(=O)NC3=O)c2)[C@H](C(F)(F)F)C1` (stereo partly drawn) [Example 257, 2-((S)-4-(2-(4-(3-(4-cyano-3-(trifluoromethyl)phenyl)-5,5-dimethyl-4-oxo-2-thioxoimidazolidin-1-yl)-2-isopropylphenoxy)ethyl)-2-(trifluoromethyl)piperazin-1-yl)-N-(3-(2,6-dioxopiperidin-3-ylamino)phenyl)acetamide], the “Y (AR degradation efficiency, % of DMSO control)” value is reported as “*** (35%<Y<50%)” and the DC50 lay in the range of 500 to 1000 nM.
